From patent publication US20240109877A1, “PYRIMIDINES FOR DEGRADING BRUTON'S TYROSINE KINASE” (AbbVie Inc., priority 2022, published 2024)

Legend:
[1] = biological target: Human BTK enzyme, wild-type (Homo sapiens (Human), UniProt Q06187); test: BTK Screening: Btk kinase activity, electrophoretic mobility shift assay (MSA); format: biochemical; conditions: 0.5 nM BTK enzyme, 50 μM ATP, 15 minutes pre-incubation, 3 hours at 25° C.
Protocol: Btk kinase activity was measured in vitro using an electrophoretic mobility shift assay (MSA). The ability of Btk to phosphorylate a fluorescent peptide substrate (FAM-GEEPLYWSFPAKKK-NH2) was measured. The kinase reactions were assembled in a total volume of 25 μL per well in 384 well plates. The following was added to each well: compound buffer (or control); enzyme buffer; and substrate buffer, as further described below.
Specifically the following was added: (1) compound buffer or control: 5μL of 5× compound buffer [(5× compound buffer comprised of: 1× Master Buffer, X μM test compound in 5% dimethyl sulfoxide; (2× Master Buffer comprised of 200 mM HEPES, pH7.5, 0.2% BSA, and 0.02% Triton X-100)]; and (2) enzyme buffer: 10 μL of 2.5× enzyme buffer (1× Master Buffer, 12.5 mM MgCl2, 2.5 mM DTT, 25 μM sodium orthovanadate, 25 μM beta-glycerophosphate, and 1.25 nM BTK enzyme). Human BTK enzyme Nanosyn-293HEK, wild-type, available from Nanosyn, Santa Clara, CA). Enzyme and compound were pre-incubated for 15 minutes. Additionally, the following was added: (3) substrate buffer: 10 μL of 2.5× substrate buffer (1× Master Buffer, […], and 2.5 μM of the peptide substrate FAM). Each plate was incubated at 25° C. for 3 hours. The reaction was terminated by adding to each well: 45 μL of 1.55× stop buffer (1× Master Buffer and 31 mM EDTA). The final reaction mixture was as follows: 100 mM HEPES, pH7.5; 0.1% BSA; 0.01% Triton X-100; 1 mM DTT; 5 mM MgCl2; 10 μM sodium orthovanadate; 10 μM beta-glycerophosphate; 50 μM ATP; 1% dimethyl sulfoxide (from compound); 1μM fluorescent peptide substrate and 0.5 nM BTK- enzyme. The terminated reactions were analyzed using a 12 channel LABCHIP® 3000 microfluidic detection instrument (available from Caliper Life Sciences, Waltham, MA). […] As substrate and product peptides were separated, two peaks of fluorescence were observed. Change in the relative fluorescence intensity of the substrate and product peaks was the parameter measured, reflecting enzyme activity. In the presence of an active compound, the ratio between product and substrate was altered. The signal of the product decreased, while the signal of the substrate increased. Capillary electrophoregrams (RDA acquisition files) were analyzed using HTS Well Analyzer software (available from Caliper Life Sciences, Waltham, MA).
Activity in each sample was determined as the product to sum ratio (PSR): P/(S+P), where P was the peak height of the product peptide and S was the peak height of the substrate peptide. For each compound, enzyme activity was measured at various concentrations (12 concentrations of compound spaced by 3× dilution intervals). Negative control samples (0% inhibition in the absence of an active compound) and positive control samples (100% inhibition, in the presence of 20 mM EDTA) were assembled in replicates of four and were used to calculate % inhibition values for each active compound at each concentration. Percent inhibition (Pinh) was determined using following equation: Pinh=(PSR0%−PSRinh)/(PSR0%−PSR100%)*100, where PSRinh was the product sum ratio in the presence of inhibitor, PSR0% was the average product sum ratio in the absence of active compound and PSR100% was the average product sum ratio in 100%-inhibition control samples.
The IC50 values of active compounds were determined by 4 parameter sigmoidal dose response model fitting of the inhibition curves (Pinh versus inhibitor concentration) using XLfit® 4 software (IDBS, Boston, MA). The IC50 values are reported in Table 2 in the BTK IC50 (nM) column.

[2] = biological target: His-tagged Cereblon/DDB1 complex (Homo sapiens (Human), UniProt Q96SW2); test: Cereblon Binding Assay (AlphaLISA Human Cereblon Binding Kit, competition); conditions: 10 μM top dose, biotin-labeled ligand competition; read-out: CRBN IC50
Protocol: Cereblon binding was measured in vitro using an AlphaLISA® Human Cereblon Binding Kit (PerkinElmer, Waltham, MA) according to the manufacturer's protocol (“Alpha” refers to Amplified Luminescent Proximity Homogeneous Assay). In this assay, donor beads and acceptor beads come into proximity through ligand binding to CRBN protein. Excitation of the donor beads provokes the release of singlet oxygen that triggers a cascade of energy transfer reactions to the acceptor beads, resulting in a sharp peak in light emission at 615 nm.
Specifically, nickel chelate acceptor beads (PerkinElmer AL108M) were used to capture a 6XHIS-tagged CRBN protein, and streptavidin-coated donor beads (PerkinElmer 6760002) were used to capture 50 nM biotinylated ligand. Each well included the following: sample or control; HIS-tagged CRBN protein; biotinylated ligand; nickel chelate acceptor beads; and streptavidin donor beads.
Competition Assay: Test compounds in 100% dimethyl sulfoxide were plated onto white, low volume 384 well plates (PerkinElmer Proxiplate 384 plus # 6008289) using an Labcyte Echo acoustic dispenser, in an 11-point dose curve and 3-fold dilution scheme. […] Plates were incubated for 30 minutes at room temperature.
Detection: 10 μL detection reagents were added in low light conditions containing nickel chelate acceptor beads and streptavidin donor beads (Perkin Elmer 6760002), resulting in a final concentration 20 ng/ml. Plates were incubated 1 hour and read on a PerkinElmerTM Envision™ plate reader (680 nm excitation and […] settings). The IC50 of each compound was determined by calculating percent inhibition from no drug and no protein controls, and the Ki of each compound was calculated using the Cheng-Prusoff transformation. From the IC50 values were determined. The IC50 values are reported in Table 2 in the CRBN IC50 (nM) column.

| Compound | IC50 [1] [nM] | IC50 [2] [nM] |
| --- | --- | --- |
| Cc1cc(-c2cc(Nc3ccc(N4CCN(CCc5ccc(N6CCC(=O)NC6=O)cc5)C[C@@H]4C)cc3)ncn2)ccc1[C@@H](C)NC(=O)c1nc(C(C)(C)C)no1 [Example 18] | 0.496 | 1250 |
| Cc1cc(-c2cc(Nc3ccc(CCN4CCN(c5ccc(N6CCC(=O)NC6=O)cc5)CC4)cn3)ncn2)ccc1[C@@H](C)NC(=O)c1nc(C(C)(C)C)no1 [Example 19] | 0.1 | ≥ 10000 |
